Measured values as given in the supplement of paper PMC5908809.

Columns and labels:
[1] = test system: normal NK cells expanded with K562-aAPC; assay: percent inhibition of viability; higher = more inhibition; conditions: 72 h, IL-2 2.5 ng/mL
Experimental: (§1)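 Drug sensitivity and resistance testing on K562-aAPC-expanded normal NK cells: 5 concentrations (10-fold steps over a 10,000-fold range), 72 h at 37 °C, viability by CellTiter-Glo normalised to DMSO and benzethonium chloride controls; DSS from the fitted curve.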

DERL-7 (IL-2 2.5 ng/mL) [2] = assay: as above; conditions: 72 h
IMC-1 (IL-2 20 ng/mL) [3] = assay: as above; conditions: 72 h
KAI3 (IL-2 2.5 ng/mL) [4] = assay: as above; conditions: 72 h
KHYG-1 (IL-2 2.5 ng/mL) [5] = assay: as above; conditions: 72 h
NK-92 (IL-2 2.5 ng/mL) [6] = assay: as above; conditions: 72 h
NK-YS (IL-2 2.5 ng/mL) [7] = assay: as above; conditions: 72 h
NKL (IL-2 2.5 ng/mL) [8] = assay: as above; conditions: 72 h
SNK-6 (IL-2 2.5 ng/mL) [9] = assay: as above; conditions: 72 h
YT (IL-2 2.5 ng/mL) [10] = assay: as above; conditions: 72 h
[11] = test system: normal primary NK cells, pool 1 (3 donors) (IL-2 2.5 ng/mL); assay: as above; conditions: 72 h
[12] = test system: normal primary NK cells, pool 1 (3 donors), resting (IL-2 0 ng/mL); assay: as above; conditions: 72 h
[13] = test system: normal primary NK cells, pool 2 (3 donors) (IL-2 2.5 ng/mL); assay: as above; conditions: 72 h
[14] = test system: normal primary NK cells, pool 3 (3 donors) (IL-2 2.5 ng/mL); assay: as above; conditions: 72 h
[15] = test system: normal NK cells expanded with K562-aAPC; assay: drug sensitivity score (DSS) (DSS units); higher = more sensitive; extreme values may be limits of the assay; conditions: 72 h; IL-2 2.5 ng/mL
Experimental: as §1

DERL-7 (IL-2 2.5 ng/mL) [16] = assay: as above; conditions: 72 h
IMC-1 (IL-2 20 ng/mL) [17] = assay: as above; conditions: 72 h
KAI3 (IL-2 2.5 ng/mL) [18] = assay: as above; conditions: 72 h
KHYG-1 (IL-2 2.5 ng/mL) [19] = assay: as above; conditions: 72 h
NK-92 (IL-2 2.5 ng/mL) [20] = assay: as above; conditions: 72 h
NK-YS (IL-2 2.5 ng/mL) [21] = assay: as above; conditions: 72 h
NKL (IL-2 2.5 ng/mL) [22] = assay: as above; conditions: 72 h
SNK-6 (IL-2 2.5 ng/mL) [23] = assay: as above; conditions: 72 h
YT (IL-2 2.5 ng/mL) [24] = assay: as above; conditions: 72 h
[25] = test system: normal primary NK cells, pool 1 (3 donors) (IL-2 2.5 ng/mL); assay: as above; conditions: 72 h
[26] = test system: normal primary NK cells, pool 1 (3 donors), resting (IL-2 0 ng/mL); assay: as above; conditions: 72 h
[27] = test system: normal primary NK cells, pool 2 (3 donors) (IL-2 2.5 ng/mL); assay: as above; conditions: 72 h
[28] = test system: normal primary NK cells, pool 3 (3 donors) (IL-2 2.5 ng/mL); assay: as above; conditions: 72 h

COc1cc2/c(=N/c3ccc(Br)cc3F)nc[nH]c2cc1OCC1CCN(C)CC1 [Vandetanib] (max concentration tested 1000 nM)
percent inhibition of viability [%]
Conditions | 0.1 nM | 1 nM | 10 nM | 100 nM | 1000 nM
DERL-7 (IL-2 2.5 ng/mL) [2] | -0.64 | -4.35 | -15.9 | -3.72 | 3.05
IMC-1 (IL-2 20 ng/mL) [3] | -1 | -1.11 | 2.06 | 4.13 | 13.1
KAI3 (IL-2 2.5 ng/mL) [4] | 0.12 | -3.68 | -0.86 | -6.05 | 18.6
KHYG-1 (IL-2 2.5 ng/mL) [5] | -1.45 | 0.56 | 5.16 | 2.56 | 12.2
NK-92 (IL-2 2.5 ng/mL) [6] | -4.34 | -9.89 | -2.18 | -8.76 | 7.58
NK-YS (IL-2 2.5 ng/mL) [7] | -3.92 | -3.47 | 0.22 | 0.66 | 11.3
NKL (IL-2 2.5 ng/mL) [8] | -13.3 | -15.3 | -10 | 2.48 | 9
SNK-6 (IL-2 2.5 ng/mL) [9] | 12.7 | 14.6 | 14.3 | 33.2 | 24.4
YT (IL-2 2.5 ng/mL) [10] | 2.5 | 1.99 | 6.02 | -0.29 | 12.9
[1] | -8.6 | 1.05 | -3.45 | 6.91 | 29.5
[11] | -5.01 | -0.24 | -7.43 | -15.2 | 2.01
[12] | 7.75 | -11.8 | -1.4 | -19.4 | 11.2
[13] | -2.11 | 0.59 | -1.27 | -7.23 | 12.3
[14] | -11.4 | -7.39 | -2.76 | -1.3 | -0.41

Conditions | drug sensitivity score
DERL-7 (IL-2 2.5 ng/mL) [16] | 0
IMC-1 (IL-2 20 ng/mL) [17] | 0.22
KAI3 (IL-2 2.5 ng/mL) [18] | 0.3
KHYG-1 (IL-2 2.5 ng/mL) [19] | 0
NK-92 (IL-2 2.5 ng/mL) [20] | 0
NK-YS (IL-2 2.5 ng/mL) [21] | 0.03
NKL (IL-2 2.5 ng/mL) [22] | 0
SNK-6 (IL-2 2.5 ng/mL) [23] | 7.25
YT (IL-2 2.5 ng/mL) [24] | 0.08
[15] | 2.32
[25] | 0
[26] | 0
[27] | 0.01
[28] | 0

O=C(/C=C/c1cccc(S(=O)(=O)Nc2ccccc2)c1)NO [Belinostat] (max concentration tested 10000 nM)
percent inhibition of viability [%]
Conditions | 1 nM | 10 nM | 100 nM | 1000 nM | 10000 nM
DERL-7 (IL-2 2.5 ng/mL) [2] | -0.73 | 5.09 | 23.1 | 100 | 101
IMC-1 (IL-2 20 ng/mL) [3] | 2.36 | -0.13 | 20.2 | 99.6 | 101
KAI3 (IL-2 2.5 ng/mL) [4] | 7.26 | 14.3 | 51.9 | 94.6 | 109
KHYG-1 (IL-2 2.5 ng/mL) [5] | -0.75 | -0.46 | 35 | 108 | 110
NK-92 (IL-2 2.5 ng/mL) [6] | 5.07 | 14.1 | 52.2 | 107 | 106
NK-YS (IL-2 2.5 ng/mL) [7] | -1.97 | -1.76 | 21 | 97.5 | 109
NKL (IL-2 2.5 ng/mL) [8] | 5.5 | 10.4 | 37.5 | 87.9 | 108
SNK-6 (IL-2 2.5 ng/mL) [9] | -0.17 | -5.01 | 28.3 | 97.2 | 101
YT (IL-2 2.5 ng/mL) [10] | 4.17 | 3.96 | 11.8 | 105 | 109
[1] | 0.58 | 6.04 | 16.8 | 99.6 | 101
[11] | 3.19 | 9.82 | 43.7 | 96.4 | 98.7
[12] | -4.94 | 0.46 | 53.2 | 87.1 | 91.7
[13] | -8.09 | 0.56 | 31 | 93.9 | 95.6
[14] | -2.35 | -1.35 | 15.5 | 96.3 | 98.3

Conditions | drug sensitivity score
DERL-7 (IL-2 2.5 ng/mL) [16] | 21.6
IMC-1 (IL-2 20 ng/mL) [17] | 21.2
KAI3 (IL-2 2.5 ng/mL) [18] | 24.1
KHYG-1 (IL-2 2.5 ng/mL) [19] | 22.9
NK-92 (IL-2 2.5 ng/mL) [20] | 24.5
NK-YS (IL-2 2.5 ng/mL) [21] | 20.9
NKL (IL-2 2.5 ng/mL) [22] | 20.9
SNK-6 (IL-2 2.5 ng/mL) [23] | 21.7
YT (IL-2 2.5 ng/mL) [24] | 20.1
[15] | 20.8
[25] | 22.5
[26] | 22.9
[27] | 21.2
[28] | 20.1
